Reference: ChEMBL document CHEMBL1201862, “PubChem BioAssay data set” (2004)
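96-well plates; 48 h exposure; 5 concentrations. Endpoints by linear interpolation between flanking doses. Not reached: highest tested concentration assigned. GI50 = concentration required for 50% inhibition of growth.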 Calls of active or inactive are those of the source. Cut-off read from the data, not from the text of the source: active = GI50 up to about 1.1 µM and inactive = higher.

Assays:
Test in all cases: DTP human tumour cell line panel, 48 h
SN12C = tested on: SN12C
LOX IMVI = tested on: LOX IMVI
TK-10 = tested on: TK-10
M14 = tested on: M14
K562 = tested on: K562
HCT-116 = tested on: HCT-116
NCI-H460 = tested on: NCI-H460
OVCAR-4 = tested on: OVCAR-4
UACC-62 = tested on: UACC-62
RPMI-8226 = tested on: RPMI-8226
OVCAR-8 = tested on: OVCAR-8
EKVX = tested on: EKVX
CCRF-CEM = tested on: CCRF-CEM
HL-60 = tested on: HL-60
SNB-19 = tested on: SNB-19

Measured: GI50

CN1C(=O)CN2C(Cl)(Cl)C2(c2ccccc2F)c2cc([N+](=O)[O-])ccc21 (stereo not drawn)
inactive: SN12C 25.2 µM | LOX IMVI 35.7 µM | TK-10 60.7 µM | M14 > 100 µM | K562 36.8 µM | HCT-116 31.7 µM | NCI-H460 33.2 µM | OVCAR-4 > 100 µM | UACC-62 28.6 µM | RPMI-8226 40.8 µM | OVCAR-8 > 100 µM | EKVX 30.4 µM | CCRF-CEM 29 µM

O=[N+]([O-])c1ccc(C2SCc3nc4ccccc4n32)cc1 (stereo not drawn)
inactive: SN12C 56.1 µM | LOX IMVI 74.1 µM | TK-10 43.4 µM | K562 33.4 µM | HL-60 43.9 µM | NCI-H460 > 100 µM | OVCAR-4 76.9 µM | SNB-19 > 100 µM | UACC-62 32.1 µM | OVCAR-8 > 100 µM | EKVX 44.3 µM | CCRF-CEM 65.9 µM

CC(=O)N/C(=C\c1ccccc1/C=C(\NC(C)=O)c1nc2cc(C)c(C)cc2[nH]1)c1nc2cc(C)c(C)cc2[nH]1
inactive: SN12C 17.1 µM | TK-10 24.4 µM | M14 9.84 µM | K562 28.6 µM | HCT-116 5.48 µM | NCI-H460 26.8 µM | SNB-19 6.81 µM | UACC-62 15.6 µM | RPMI-8226 2.04 µM | OVCAR-8 19.2 µM | EKVX 12.3 µM | CCRF-CEM 26.7 µM

C=CCC12CC(=O)CCC1CC(=O)C2 (stereo not drawn)
inactive: SN12C > 100 µM | TK-10 > 100 µM | M14 > 100 µM | K562 > 100 µM | HL-60 > 100 µM | HCT-116 > 100 µM | NCI-H460 > 100 µM | OVCAR-4 > 100 µM | SNB-19 > 100 µM | UACC-62 > 100 µM | RPMI-8226 > 100 µM | OVCAR-8 > 100 µM | CCRF-CEM > 100 µM

CCOC(=O)C1=C(C)N(NC(=O)OC)C2(N)N(NC(=O)OC)C(C)=C(C(=O)OCC)C12C#N (stereo not drawn)
inactive: SN12C > 100 µM | LOX IMVI > 100 µM | M14 > 100 µM | K562 > 100 µM | HL-60 > 100 µM | HCT-116 > 100 µM | NCI-H460 > 100 µM | OVCAR-4 > 100 µM | SNB-19 > 100 µM | UACC-62 > 100 µM | RPMI-8226 > 100 µM | OVCAR-8 > 100 µM | EKVX > 100 µM

COc1ccc(C(=O)C(C(=O)CCC(=O)Nc2cccc(C(F)(F)F)c2)c2ccccc2)cc1 (stereo not drawn)
inactive: SN12C > 100 µM | TK-10 > 100 µM | M14 > 100 µM | K562 54 µM | HL-60 61.2 µM | HCT-116 80.7 µM | NCI-H460 > 100 µM | OVCAR-4 37.7 µM | SNB-19 > 100 µM | UACC-62 91.8 µM | RPMI-8226 55.2 µM | OVCAR-8 > 100 µM | EKVX > 100 µM | CCRF-CEM 46.8 µM

c1ccc(/N=c2\snc3scc(-c4ccccc4)n23)cc1
inactive: SN12C 44.6 µM | LOX IMVI 34.4 µM | TK-10 66.2 µM | M14 33 µM | K562 52.6 µM | HL-60 40.6 µM | OVCAR-4 39.6 µM | SNB-19 39.2 µM | UACC-62 30.1 µM | RPMI-8226 28.7 µM | OVCAR-8 48.6 µM | EKVX 90.2 µM | CCRF-CEM 43.8 µM

O=C(c1ccccc1)c1ccc2cccc(OC3OC(CO)C(O)C(O)C3O)c2n1 (stereo not drawn)
inactive: SN12C > 100 µM | LOX IMVI > 100 µM | TK-10 > 100 µM | M14 > 100 µM | K562 > 100 µM | HCT-116 > 100 µM | NCI-H460 74.6 µM | OVCAR-4 > 100 µM | SNB-19 > 100 µM | UACC-62 > 100 µM | RPMI-8226 > 100 µM | OVCAR-8 73.6 µM | EKVX > 100 µM

CCNC1=Nc2ccccc2-n2c(nn3nc4ccccc4c23)N1CC
inactive: SN12C 77.4 µM | LOX IMVI > 100 µM | M14 > 100 µM | K562 66.7 µM | HL-60 36.6 µM | HCT-116 > 100 µM | NCI-H460 > 100 µM | OVCAR-4 > 100 µM | SNB-19 > 100 µM | UACC-62 > 100 µM | RPMI-8226 97.1 µM | OVCAR-8 > 100 µM | EKVX > 100 µM | CCRF-CEM 80 µM

O=C(/C=C/C1C(=O)NC(=O)NC1=O)CC(=O)C(=O)Nc1cc(Cl)c(Cl)cc1Cl
inactive: SN12C > 100 µM | LOX IMVI > 100 µM | TK-10 > 100 µM | M14 > 100 µM | K562 > 100 µM | HL-60 > 100 µM | HCT-116 > 100 µM | NCI-H460 > 100 µM | OVCAR-4 > 100 µM | SNB-19 > 100 µM | UACC-62 > 100 µM | RPMI-8226 > 100 µM | OVCAR-8 > 100 µM | EKVX > 100 µM | CCRF-CEM > 100 µM

O=C(O)CNS(=O)(=O)c1ccc(NC(=O)c2ccc([N+](=O)[O-])cc2)cc1
inactive: SN12C > 100 µM | LOX IMVI > 100 µM | TK-10 > 100 µM | M14 > 100 µM | K562 > 100 µM | HL-60 > 100 µM | NCI-H460 > 100 µM | OVCAR-4 > 100 µM | SNB-19 > 100 µM | UACC-62 > 100 µM | RPMI-8226 > 100 µM | OVCAR-8 > 100 µM | EKVX > 100 µM | CCRF-CEM > 100 µM

C[C@@H]1CC2(C[C@@H](C)C3[C@@H](CC4(C)CCCC5C6=CC(O)(CC[C@]34C)OC6=CC(=O)OC5(C)C)O2)OC1=O (stereo partly drawn)
inactive: SN12C > 100 µM | LOX IMVI > 100 µM | TK-10 > 100 µM | M14 > 100 µM | K562 84.3 µM | HL-60 > 100 µM | HCT-116 > 100 µM | OVCAR-4 > 100 µM | SNB-19 > 100 µM | UACC-62 > 100 µM | RPMI-8226 > 100 µM

COc1cc(C2c3cc4c(cc3[C@@H](Nc3ccc(C(=O)O)cc3)C3COC(=O)[C@H]23)OCO4)cc(OC)c1O (stereo partly drawn)
inactive: SN12C 31.7 µM | LOX IMVI 4.41 µM | TK-10 27.8 µM | M14 20.7 µM | HL-60 2.49 µM | HCT-116 19.4 µM | NCI-H460 2.39 µM | OVCAR-4 20.2 µM | SNB-19 6.14 µM | UACC-62 10.6 µM | OVCAR-8 14.6 µM | EKVX 27.4 µM | CCRF-CEM 2.78 µM

COC[C@@H]1Cc2cc(OC)c3c(c2[C@H](c2ccc(OC)c(OC)c2)[C@H]1COC)OCO3 [HYPOPHYLLANTHIN]
inactive: SN12C > 100 µM | LOX IMVI > 100 µM | TK-10 > 100 µM | M14 50 µM | K562 > 10 µM | HL-60 > 100 µM | HCT-116 99.8 µM | NCI-H460 > 100 µM | SNB-19 > 100 µM | UACC-62 > 100 µM | OVCAR-8 > 100 µM | EKVX > 100 µM | CCRF-CEM > 100 µM
